Measured values as given in patent US9777017B2, “Tricyclic fused thiophene derivatives as JAK inhibitors” (Incyte Corporation, priority 2012, dated 2017).

Columns and labels:
Type in all cases: biochemical
human JAK1 [1] = assay: In vitro JAK kinase assay (HTRF, phosphorylation of a biotinylated peptide), JAK1; conditions: ratio of IC50s, 1 mM ATP
Method in brief: (§1)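 Baculovirus-expressed catalytic domains (JAK1 a.a. 837-1142, JAK2 a.a. 828-1132) phosphorylate 500 nM biotinylated peptide at 1 mM ATP, Tris pH 7.8, 1 h at room temperature. EDTA stop and HTRF detection with Eu-Py20/SA-APC; IC50 values derived.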

human JAK1 [2] = target: human JAK1 (Homo sapiens, UniProt P23458); assay: as above; conditions: 1 mM ATP
Method in brief: as §1

human JAK2 = human JAK2 (Homo sapiens (Human), UniProt O60674); assay: In vitro JAK kinase assay (HTRF, phosphorylation of a biotinylated peptide), JAK2; parameters: key to JAK2 IC50 (nM): +indicates an IC50 of ≦100 nM; ++indicates an IC50 of ≦1000 nM; +++indicates an IC50 of ≦2000 nM; ++++indicates an IC50 of >2000 nM; +++++indicates that the IC50 was greater than the highest concentration tested; conditions: 1 mM ATP
Method in brief: as §1

human JAK2, sequence (O60674 828-1132): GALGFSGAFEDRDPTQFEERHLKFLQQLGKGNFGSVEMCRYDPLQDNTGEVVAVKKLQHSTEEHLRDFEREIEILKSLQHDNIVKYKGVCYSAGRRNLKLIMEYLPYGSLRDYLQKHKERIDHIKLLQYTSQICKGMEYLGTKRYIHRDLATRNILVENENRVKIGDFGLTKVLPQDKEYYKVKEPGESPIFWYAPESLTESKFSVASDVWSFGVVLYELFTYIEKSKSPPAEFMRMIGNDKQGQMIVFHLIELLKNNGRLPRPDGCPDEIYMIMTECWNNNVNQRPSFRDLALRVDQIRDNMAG

| Compound | JAK2/JAK1 (human JAK1 [1]) | IC50 (human JAK1 [2]) [nM] | JAK2 IC50 (nM) (human JAK2) | IC50 (human JAK2) [nM] |
| --- | --- | --- | --- | --- |
| CC(C)OC(=O)NC[C@H]1CC[C@H](n2c(CC#N)nc3cnc4ccsc4c32)CC1 [Example 88, Isopropyl ({trans-4-[2-(cyanomethyl)-1H-imidazo[4,5-d]thieno[3,2-b]pyridin-1-yl]cyclohexyl}methyl)carbamate] | >10 | ≤ 100 | +++++ |  |
| CCC(=O)NC[C@H]1CC[C@H](n2c(CC#N)nc3cnc4ccsc4c32)CC1 [Example 89, N-({trans-4-[2-(Cyanomethyl)-1H-imidazo[4,5-d]thieno[3,2-b]pyridin-1-yl]cyclohexyl}methyl)propanamide] | >10 | ≤ 100 |  | > 2000 |
| N#CCc1nc2cnc3ccsc3c2n1[C@H]1CC[C@H](CC#N)CC1 [Example 90, {1-[trans-4-(Cyanomethyl)cyclohexyl]-1H-imidazo[4,5-d]thieno[3,2-b]pyridin-2-yl}acetonitrile] | >10 | ≤ 100 |  | ≤ 1000 |
| N#CC[C@H]1CC[C@H](n2c(CO)nc3cnc4ccsc4c32)CO1 [Example 91, {(2R,5S)-5-[2-(Hydroxymethyl)-1H-imidazo[4,5-b]thieno[3,2-b]pyridin-1-yl]tetrahydro-2H-pyran-2-yl}acetonitrile] | >10 | ≤ 100 |  | ≤ 1000 |
| ((1R,2R,4S)-2-Hydroxy-4-{2-[(1R)-1-hydroxyethyl]-1H-imidazo[4,5-d]thieno[3,2-b]pyridin-1-yl}cyclohexyl)acetonitrile and ((1S,2S,4R)-2-hydroxy-4-{2-[(1R)-1-hydroxyethyl]-1H-imidazo[4,5-d]thieno[3,2-b]pyridin-1-yl}cyclohexyl)acetonitrile [36 (first peak)] | >10 | ≤ 100 |  | > 2000 |
| ((1R,2R,4S)-2-Hydroxy-4-{2-[(1R)-1-hydroxyethyl]-1H-imidazo[4,5-d]thieno[3,2-b]pyridin-1-yl}cyclohexyl)acetonitrile and ((1S,2S,4R)-2-hydroxy-4-{2-[(1R)-1-hydroxyethyl]-1H-imidazo[4,5-d]thieno[3,2-b]pyridin-1-yl}cyclohexyl)acetonitrile [36 (second peak)] | >10 | ≤ 100 |  | ≤ 1000 |
| ((1R,2S,4S)-2-Hydroxy-4-{2-[(1R)-1-hydroxyethyl]-1H-imidazo[4,5-d]thieno[3,2-b]pyridin-1-yl}cyclohexyl)acetonitrile trifluoacetate and ((1S,2R,4R)-2-hydroxy-4-{2-[(1R)-1-hydroxyethyl]-1H-imidazo[4,5-d]thieno[3,2-b]pyridin-1-yl}cyclohexyl)acetonitrile trifluoacetate [37 (first peak)] | >10 | ≤ 1000 | +++++ |  |
| ((1R,2S,4S)-2-Hydroxy-4-{2-[(1R)-1-hydroxyethyl]-1H-imidazo[4,5-d]thieno[3,2-b]pyridin-1-yl}cyclohexyl)acetonitrile trifluoacetate and ((1S,2R,4R)-2-hydroxy-4-{2-[(1R)-1-hydroxyethyl]-1H-imidazo[4,5-d]thieno[3,2-b]pyridin-1-yl}cyclohexyl)acetonitrile trifluoacetate [37 (second peak)] | >10 | ≤ 100 |  | ≤ 1000 |
| [(1R,2S,4S)-4-(2-Ethyl-1H-imidazo[4,5-d]thieno[3,2-b]pyridin-1-yl)-2-hydroxycyclohexyl]acetonitrile and [(1S,2R,4R)-4-(2-ethyl-1H-imidazo[4,5-d]thieno[3,2-b]pyridin-1-yl)-2-hydroxycyclohexyl]acetonitrile [40 (first peak)] | >10 | ≤ 100 |  | ≤ 1000 |
| [(1R,2S,4S)-4-(2-Methyl-1H-imidazo[4,5-d]thieno[3,2-b]pyridin-1-yl)-2-hydroxycyclohexyl]acetonitrile and [(1S,2R,4R)-4-(2-methyl-1H-imidazo[4,5-d]thieno[3,2-b]pyridin-1-yl)-2-hydroxycyclohexyl]acetonitrile [41 (first peak)] | >10 | ≤ 100 |  | ≤ 1000 |
